Earlier results as cited in patent US7759386B2, “Pharmaceutical compositions of estrogenic agents” (Wyeth LLC, priority 2000, dated 2010).

Conditions: after 1 year of storage; best antioxidant system described; solid state, tablets

## C=C1CC[C@H](O)C/C1=C/C=C1\CCC[C@]2(C)[C@@H]([C@H](C)CCCC(C)C)CC[C@@H]12 [cholecalciferol]
  original content remaining: 87.6%
